Experimental data published in patent US11274332B2, “Methods of administering 3,4-diaminopyridine” (SERB SA, priority 2011, dated 2022).

Assay: Food-effect crossover study, adverse events after single 20 mg amifampridine phosphate in healthy subjects (Examples 10, 11)
Assay type: in vivo
Method: This was a randomized, open-label, 2-treatment, 2-period crossover study with 44 completed subjects to assess the safety, tolerability, and the effect of food on the relative bioavailability of a single dose of amifampridine phosphate.
Safety was evaluated for all subjects who take at least one dose of 3,4-DAP. Safety was evaluated by recording the incidence of adverse events (AEs), physical examination, vital signs, concomitant medications, clinical laboratory assessments, and 12-lead electrocardiogram (ECG).
Analysis for the following safety parameters was carried out on the Safety Population: AEs which included all AEs, AEs by severity, drug-related AEs, deaths, SAEs, AEs leading to study discontinuation, and most frequent AEs, standard clinical laboratory tests, vital signs, ECG measurements, routine physical examinations, and prior and concomitant medications. The cut-off for frequency of AEs reported was determined based on the data. No formal statistical testing was performed for the safety analyses; only descriptive statistics were provided. Appropriate descriptive statistics for the safety data were determined using SAS Version 9.2.
AEs were coded according to the Medical Dictionary for Regulatory Activities (MedDRA; Version 13.0). […] The occurrence of AEs was assessed continuously from the time the subject signed the VID and consent. The reporting period for non-serious AEs was from the first dose to the final study visit. The investigator determined the severity of each event and the relationship of an AE to the IP and recorded it on the source documents and AE CRF. The nature, time of onset, duration, severity, and relationship to study drug was documented, including documentation of investigator assessment and review. All events were assessed to determine if the AE was serious.
The Investigator determined the severity of each event and the event was recorded on the source documents and AE CRF. A coding of “mild” meant there was no limitation of usual activities, “moderate” meant there was some limitation of usual activities, “severe” meant there was an inability to carry out usual activities.
The reporting period for AEs that met the criteria of an SAE began from the time of signing the VID and consent form through follow-up or early termination. […] Clinical Laboratory Assessments

Nc1ccncc1N.O=P(O)(O)O [amifampridine phosphate, 3,4-diaminopyridine phosphate]
General Disorders and Administration Site Conditions Total, drug-related AE: events (Female N=16): 2
General Disorders and Administration Site Conditions Total, drug-related AE: subjects (Female N=16): 2
Headache, drug-related AE: % of subjects (Female N=16): 19%
Headache, drug-related AE: events (Female N=16): 3
Headache, drug-related AE: subjects (Female N=16): 3
Hypoaesthesia Facial, drug-related AE: % of subjects (Female N=16): (0%) [0]
Hypoaesthesia Facial, drug-related AE: events (Female N=16): (0%) [0]
Hypoaesthesia Facial, drug-related AE: subjects (Female N=16): 0
Hypoaesthesia Oral, drug-related AE: % of subjects (Female N=16): 6%
Hypoaesthesia Oral, drug-related AE: events (Female N=16): 1
Hypoaesthesia Oral, drug-related AE: subjects (Female N=16): 1
Hypoaesthesia, drug-related AE: % of subjects (Female N=16): 6%
Hypoaesthesia, drug-related AE: events (Female N=16): 1
Hypoaesthesia, drug-related AE: subjects (Female N=16): 1
Nausea, drug-related AE: % of subjects (Female N=16): 13%
Nausea, drug-related AE: events (Female N=16): 2
Nausea, drug-related AE: subjects (Female N=16): 2
Nervous System Disorders Total, drug-related AE: % of subjects (Female N=16): 63%
Nervous System Disorders Total, drug-related AE: events (Female N=16): 31
Nervous System Disorders Total, drug-related AE: subjects (Female N=16): 10
Paraesthesia Oral, drug-related AE: % of subjects (Female N=16): 44%
Paraesthesia Oral, drug-related AE: events (Female N=16): 12
Paraesthesia Oral, drug-related AE: subjects (Female N=16): 7
Paraesthesia, drug-related AE: % of subjects (Female N=16): 38%
Paraesthesia, drug-related AE: events (Female N=16): 9
Paraesthesia, drug-related AE: subjects (Female N=16): 6
Possibly or probably related AEs, Mild: % of subjects (Female N=16): 75%
Possibly or probably related AEs, Mild: events (Female N=16): 41
Possibly or probably related AEs, Mild: subjects (Female N=16): 12
Possibly or probably related AEs, Moderate: % of subjects (Female N=16): 6%
Possibly or probably related AEs, Moderate: events (Female N=16): 1
Possibly or probably related AEs, Moderate: subjects (Female N=16): 1
Possibly or probably related AEs, Severe: % of subjects (Female N=16): (0%) [0]
Possibly or probably related AEs, Severe: events (Female N=16): (0%) [0]
Possibly or probably related AEs, Severe: subjects (Female N=16): 0
Possibly or probably related AEs, Total: % of subjects (Female N=16): 75%
Possibly or probably related AEs, Total: events (Female N=16): 42
Possibly or probably related AEs, Total: subjects (Female N=16): 12
Serious adverse events: % of subjects (Female N=16): (0%) [0]
Serious adverse events: events (Female N=16): (0%) [0]
Serious adverse events: subjects (Female N=16): 0
Skin and Subcutaneous Tissue Disorders Total, drug-related AE: % of subjects (Female N=16): (0%) [0]
Skin and Subcutaneous Tissue Disorders Total, drug-related AE: events (Female N=16): (0%) [0]
Skin and Subcutaneous Tissue Disorders Total, drug-related AE: subjects (Female N=16): 0
Vascular Disorders Total, drug-related AE: % of subjects (Female N=16): 6%
Vascular Disorders Total, drug-related AE: events (Female N=16): 1
Vascular Disorders Total, drug-related AE: subjects (Female N=16): 1
Abdominal Pain Upper, drug-related AE: % of subjects (Male N=31): 3%
Abdominal Pain Upper, drug-related AE: events (Male N=31): 1
Abdominal Pain Upper, drug-related AE: subjects (Male N=31): 1
Abdominal Pain, drug-related AE: % of subjects (Male N=31): 3%
Abdominal Pain, drug-related AE: events (Male N=31): 1
Abdominal Pain, drug-related AE: subjects (Male N=31): 1
Abdominal Tenderness, drug-related AE: % of subjects (Male N=31): (0%) [0]
Abdominal Tenderness, drug-related AE: events (Male N=31): (0%) [0]
Abdominal Tenderness, drug-related AE: subjects (Male N=31): 0
Acne, drug-related AE: % of subjects (Male N=31): 3%
Acne, drug-related AE: events (Male N=31): 1
Acne, drug-related AE: subjects (Male N=31): 1
All treatment emergent AEs, Mild: % of subjects (Male N=31): 58%
All treatment emergent AEs, Mild: events (Male N=31): 57
All treatment emergent AEs, Mild: subjects (Male N=31): 18
All treatment emergent AEs, Moderate: % of subjects (Male N=31): (0%) [0]
All treatment emergent AEs, Moderate: events (Male N=31): (0%) [0]
All treatment emergent AEs, Moderate: subjects (Male N=31): 0
All treatment emergent AEs, Severe: % of subjects (Male N=31): 3%
All treatment emergent AEs, Severe: events (Male N=31): 1
All treatment emergent AEs, Severe: subjects (Male N=31): 1
All treatment emergent AEs, Total: events (Male N=31): 58
All treatment emergent AEs, Total: subjects (Male N=31): 19
Constipation, drug-related AE: % of subjects (Male N=31): (0%) [0]
Constipation, drug-related AE: events (Male N=31): (0%) [0]
Constipation, drug-related AE: subjects (Male N=31): 0
Diarrhoea, drug-related AE: % of subjects (Male N=31): (0%) [0]
Diarrhoea, drug-related AE: events (Male N=31): (0%) [0]
Diarrhoea, drug-related AE: subjects (Male N=31): 0
Discontinued due to adverse events: % of subjects (Male N=31): 3%
Discontinued due to adverse events: events (Male N=31): 1
Discontinued due to adverse events: subjects (Male N=31): 1
Dizziness, drug-related AE: % of subjects (Male N=31): 3%
Dizziness, drug-related AE: events (Male N=31): 2
Dizziness, drug-related AE: subjects (Male N=31): 1
Dysgeusia, drug-related AE: % of subjects (Male N=31): 6%
Dysgeusia, drug-related AE: events (Male N=31): 3
Dysgeusia, drug-related AE: subjects (Male N=31): 2
Fatigue, drug-related AE: % of subjects (Male N=31): 6%
Fatigue, drug-related AE: events (Male N=31): 2
Fatigue, drug-related AE: subjects (Male N=31): 2
Feeling Hot, drug-related AE: % of subjects (Male N=31): 3%
Feeling Hot, drug-related AE: events (Male N=31): 1
Feeling Hot, drug-related AE: subjects (Male N=31): 1
Flushing, drug-related AE: % of subjects (Male N=31): (0%) [0]
Flushing, drug-related AE: events (Male N=31): (0%) [0]
Flushing, drug-related AE: subjects (Male N=31): 0
Gastrointestinal Disorders Total, drug-related AE: % of subjects (Male N=31): 13%
Gastrointestinal Disorders Total, drug-related AE: events (Male N=31): 4
Gastrointestinal Disorders Total, drug-related AE: subjects (Male N=31): 4
General Disorders and Administration Site Conditions Total, drug-related AE: % of subjects (Male N=31): 10%
General Disorders and Administration Site Conditions Total, drug-related AE: events (Male N=31): 3
General Disorders and Administration Site Conditions Total, drug-related AE: subjects (Male N=31): 3
Headache, drug-related AE: % of subjects (Male N=31): 6%
Headache, drug-related AE: events (Male N=31): 2
Headache, drug-related AE: subjects (Male N=31): 2
Hypoaesthesia Facial, drug-related AE: % of subjects (Male N=31): 3%
Hypoaesthesia Facial, drug-related AE: events (Male N=31): 1
Hypoaesthesia Facial, drug-related AE: subjects (Male N=31): 1
Hypoaesthesia Oral, drug-related AE: % of subjects (Male N=31): 13%
Hypoaesthesia Oral, drug-related AE: events (Male N=31): 5
Hypoaesthesia Oral, drug-related AE: subjects (Male N=31): 4
Hypoaesthesia, drug-related AE: % of subjects (Male N=31): 3%
Hypoaesthesia, drug-related AE: events (Male N=31): 1
Hypoaesthesia, drug-related AE: subjects (Male N=31): 1
Nausea, drug-related AE: % of subjects (Male N=31): 6%
Nausea, drug-related AE: events (Male N=31): 2
Nausea, drug-related AE: subjects (Male N=31): 2
Nervous System Disorders Total, drug-related AE: % of subjects (Male N=31): 55%
Nervous System Disorders Total, drug-related AE: events (Male N=31): 43
Nervous System Disorders Total, drug-related AE: subjects (Male N=31): 17
Paraesthesia Oral, drug-related AE: % of subjects (Male N=31): 42%
Paraesthesia Oral, drug-related AE: events (Male N=31): 18
Paraesthesia Oral, drug-related AE: subjects (Male N=31): 13
Paraesthesia, drug-related AE: % of subjects (Male N=31): 19%
Paraesthesia, drug-related AE: events (Male N=31): 11
